# Reference: PMC11456916, “A screen for cell envelope stress uncovers an inhibitor of prolipoprotein diacylglyceryl transferase, Lgt, in Escherichiacoli” (iScience, 2024)
# Where two headings read alike, the source gives them in different places.
# Experiments:
# E. coli ΔtolC-pore Δlpp = assay: MIC in lpp deletion background; assay type: cell-based; conditions: E. coli ΔtolC-pore Δlpp versus E. coli ΔtolC-pore
# From the text: We next turned to genetic approaches to confirm the mechanism of action of MAC-0452936. […] To that end, we screened the E. coli CRISPRi collection in the ΔtolC-pore genetic background with a sub-inhibitory concentration of MAC-0452936 and measured the fitness of all 356 CRISPRi mutants (Figure 4C and Data S4). […] Depletion of Lgt by CRISPRi provided supporting evidence that MAC-0452936 targeted Lgt in E. coli; however, we sought to confirm this observation using a parallel genetic approach. We hypothesized that MAC-0452936 potency would also be affected by high-copy expression of lgt. To that end, we introduced either an arabinose inducible copy of lgt supplied on the pCHAP9231 plasmid[48] or the pBAD19s plasmid as a control into E. coli ΔtolC-pore and tested the potency of MAC-0452936 (Figure 4E). Induction of lgt expression with arabinose suppressed the activity of MAC-0452936 by about 8-fold. […] To test this hypothesis, we constructed E. coli ΔlgtΔtolC-pore with pCHAP9231[48] so that lgt expression was driven solely by arabinose from the plasmid. […] To test this observation with MAC-0452936, we introduced an lpp deletion into our screening strain E. coli ΔtolC-pore and assessed the activity of our Lgt inhibitor in this mutant background. […]
# S. aureus MRSA JE2 = assay: MIC assay with or without SPR741, S. aureus; assay type: cell-based, Staphylococcus aureus; conditions: for MIC: Staphylococcus aureus, MRSA
# Method: (§1) We next sought to determine whether we could achieve growth inhibition of wild-type E. coli using MAC-0452936 and an antibiotic adjuvant. […] To that end, we determined the MIC of MAC-0452936 against wild-type E. coli in the presence and absence of a sub-MIC concentration of SPR741 (Figure S8B). […] We leveraged this combination to characterize the spectrum of activity of MAC-0452936 against a panel of Gram-negative pathogens (Table 2). In the presence of 8 μg/mL SPR741, we observed MAC-0452936 activity against the clinical E. coli isolates C0244 and CFT073 at 2 μg/mL as well as against Salmonella Typhimurium SL1344 at 4 μg/mL.
# (§2) For MIC assays, cultures of bacteria were grown in LB broth. Overnight cultures were diluted (1:100) into fresh LB media and grown to the mid-log phase of growth (OD600 ∼0.5). Subcultures were then normalized to an OD600 of 0.1, and diluted (1:5000) into assay media. Assay plates were then incubated for 18 h at 37°C, then OD600 was measured using a Biotek Neo plate reader.
# S. Typhimurium SL1344 = assay: MIC assay with or without SPR741, S. Typhimurium; assay type: cell-based; conditions: Salmonella enterica
# Method: as §1, §2
# E. coli ΔtolC = assay: MIC assay, E. coli ΔtolC; assay type: cell-based; conditions: growth inhibition, in words
# Method: as §2
# A. baumannii ATCC17978 = assay: MIC assay with or without SPR741, A. baumannii; assay type: cell-based, Acinetobacter baumannii; conditions: for MIC: Acinetobacter baumannii
# Method: as §1, §2
# [1] = biological target: T1, prolipoprotein diacylglyceryl transferase, Lgt (Escherichia coli, UniProt P60955); assay: In vitro Lgt biochemical assay (phosphatidylglycerol and Pal-IAAC peptide substrates); set-up: species or system E. coli
# T1 construct: Expression, purification, and in vitro Lgt biochemical assay were conducted as described by Diao et al; made in house
# T1 sequence (P60955 whole entry): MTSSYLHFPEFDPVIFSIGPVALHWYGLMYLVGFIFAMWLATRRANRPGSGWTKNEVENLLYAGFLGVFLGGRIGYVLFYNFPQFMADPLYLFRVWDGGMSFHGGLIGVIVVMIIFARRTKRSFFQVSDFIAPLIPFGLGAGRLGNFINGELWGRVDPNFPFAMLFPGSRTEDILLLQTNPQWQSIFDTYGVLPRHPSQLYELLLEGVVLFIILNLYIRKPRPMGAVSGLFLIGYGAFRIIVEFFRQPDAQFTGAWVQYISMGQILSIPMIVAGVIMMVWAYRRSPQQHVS
# From the text: With both genetic and phenotypic evidence supporting MAC-0452936 inhibiting Lgt in E. coli, we next investigated whether MAC-0452936 could inhibit Lgt activity in vitro. Recently, a biochemical assay for Lgt activity was developed using phosphatidylglycerol and Pal-IAAC peptide as substrates.[12] […] As similar results were obtained using two different Lgt enzyme preparations, the inhibition observed by MAC-0452936 was not dependent on the preparation of the lipid matrix. Together, we present genetic, phenotypic, and biochemical evidence that MAC-0452936 inhibits the growth of E. coli through inhibition of Lgt. MAC-0452936 represents a previously undiscovered small molecule inhibitor of bacterial Lgt, and the oxime ester represents a promising chemical scaffold for antibiotic discovery.
# Expression, purification, and in vitro Lgt biochemical assay were conducted as described by Diao et al.[12]
# P. aeruginosa PA01 = assay: MIC assay with or without SPR741, P. aeruginosa; assay type: cell-based, Pseudomonas aeruginosa; conditions: for MIC: Pseudomonas aeruginosa
# Method: as §1, §2
# K. pneumoniae MKP103 = assay: MIC assay with or without SPR741, K. pneumoniae; assay type: cell-based, Klebsiella pneumoniae; conditions: for MIC: Klebsiella pneumoniae
# Method: as §1, §2
compound,measurement,setting,value
"COc1ccc(C(=O)O/N=C(\c2cccs2)C(C)(C)C)cc1 [MAC-0452936, (Z)-2-Pivaloylthiophene O-(4-methoxybenzoyl) oxime]",sensitization by deletion of lpp,E. coli ΔtolC-pore Δlpp,2 fold
same,"MIC, S. aureus MRSA JE2 + 8 μg/mL SPR741",S. aureus MRSA JE2; 8 μg/mL SPR741,did not observe MAC-0452936 activity
same,MIC,"S. aureus MRSA JE2; read-out: MIC, S. aureus MRSA JE2 + 0 μg/mL SPR741",> 64 mg/L
same,MIC,"S. aureus MRSA JE2; read-out: MIC, S. aureus MRSA JE2 + 8 μg/mL SPR741",> 64 mg/L
same,MIC,"S. Typhimurium SL1344; read-out: MIC, S. Typhimurium SL1344 + 0 μg/mL SPR741",> 64 mg/L
same,MIC,"S. Typhimurium SL1344; read-out: MIC, S. Typhimurium SL1344 + 8 μg/mL SPR741",4 mg/L
same,activity against E. coli ΔtolC,E. coli ΔtolC,active
same,"MIC, A. baumannii ATCC17978 + 8 μg/mL SPR741",A. baumannii ATCC17978; 8 μg/mL SPR741,did not observe MAC-0452936 activity
same,MIC,"A. baumannii ATCC17978; ATCC17978, read-out: MIC, A. baumannii ATCC17978 + 8 μg/mL SPR741",> 64 mg/L
same,MIC,"A. baumannii ATCC17978; ATCC17978, read-out: MIC, A. baumannii ATCC17978 + 0 μg/mL SPR741",> 64 mg/L
same,IC50,"[1]; in vitro Lgt inhibition Amph-Lgt IC50, Lgt purified using amphipol lipid matrix",0.59 µM
same,IC50,"[1]; in vitro Lgt inhibition DDM-Lgt IC50, Lgt purified using DDM lipid matrix",1.45 µM
same,"MIC, P. aeruginosa PA01 + 8 μg/mL SPR741",P. aeruginosa PA01; 8 μg/mL SPR741,did not observe MAC-0452936 activity
same,MIC,"P. aeruginosa PA01; PA01, read-out: MIC, P. aeruginosa PA01 + 8 μg/mL SPR741",> 64 mg/L
same,MIC,"P. aeruginosa PA01; PA01, read-out: MIC, P. aeruginosa PA01 + 0 μg/mL SPR741",> 64 mg/L
same,"MIC, K. pneumoniae MKP103 + 8 μg/mL SPR741",K. pneumoniae MKP103; 8 μg/mL SPR741,did not observe MAC-0452936 activity
same,MIC,"K. pneumoniae MKP103; MKP103, read-out: MIC, K. pneumoniae MKP103 + 0 μg/mL SPR741",> 64 mg/L
same,MIC,"K. pneumoniae MKP103; MKP103, read-out: MIC, K. pneumoniae MKP103 + 8 μg/mL SPR741",> 64 mg/L
